This note sets out measurements from patent EP4039094A1, “NOVEL ANTIFUNGAL COMPOUNDS” (Max-Planck-Gesellschaft zur Förderung der Wissenschaften …, priority 2021, dated 2022).

Like-named read-outs stand apart in the source and are kept apart here.

The test addresses T1, Stp1/Stp4/Stp3 subcomplex (Mycosarcoma maydis, UniProt A0A0D1C5E3+A0A0D1CU07+A0A0D1EAN2).
T1 sequence (A0A0D1CU07 29-515): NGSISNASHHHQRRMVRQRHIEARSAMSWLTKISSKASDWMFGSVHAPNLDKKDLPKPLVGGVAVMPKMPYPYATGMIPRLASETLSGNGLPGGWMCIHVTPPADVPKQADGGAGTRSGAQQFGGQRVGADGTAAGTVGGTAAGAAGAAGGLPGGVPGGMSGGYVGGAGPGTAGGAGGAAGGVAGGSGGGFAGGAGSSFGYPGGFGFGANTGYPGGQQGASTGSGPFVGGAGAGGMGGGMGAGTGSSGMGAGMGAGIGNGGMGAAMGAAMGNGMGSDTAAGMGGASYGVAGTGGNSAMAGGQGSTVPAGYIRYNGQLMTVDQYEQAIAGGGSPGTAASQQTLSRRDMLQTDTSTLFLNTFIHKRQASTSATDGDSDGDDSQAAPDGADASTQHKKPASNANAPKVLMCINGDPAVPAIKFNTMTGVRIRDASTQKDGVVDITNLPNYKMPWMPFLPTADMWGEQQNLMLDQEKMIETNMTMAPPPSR
T1 sequence (A0A0D1C5E3 24-129): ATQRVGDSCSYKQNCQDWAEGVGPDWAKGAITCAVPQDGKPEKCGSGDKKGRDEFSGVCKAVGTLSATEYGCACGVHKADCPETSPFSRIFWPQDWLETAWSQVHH
T1 sequence (A0A0D1EAN2 25-327): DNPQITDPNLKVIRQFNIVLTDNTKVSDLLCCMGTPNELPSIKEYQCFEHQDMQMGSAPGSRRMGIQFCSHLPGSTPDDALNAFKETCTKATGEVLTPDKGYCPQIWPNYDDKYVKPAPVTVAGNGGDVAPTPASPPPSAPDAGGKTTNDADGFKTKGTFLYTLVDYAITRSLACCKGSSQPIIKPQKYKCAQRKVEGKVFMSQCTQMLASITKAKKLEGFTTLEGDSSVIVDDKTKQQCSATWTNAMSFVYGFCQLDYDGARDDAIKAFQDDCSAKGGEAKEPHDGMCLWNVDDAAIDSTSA
Kind of test: Alamar Blue viability assay in S. cerevisiae 2-hybrid strain NL73 (viability depends on Stp complex formation). It counts as cell-based, U. maydis. The source says:
To develop a screening platform based on Stp complex formation, a Saccharomyces cerevisiae 2-hybrid system was used. […] After co-transformation, reporter gene transcription is activated only if the two fusion proteins interact in the yeast nucleus. Moreover, the S. cerevisiae strain AH109 harbours the reporter genes ADE2 and HIS3, which encode for two enzymes that are crucial for adenine (Ade) and histidine (His) biosynthesis and thereby enable nutritional selection as a read-out for the interaction between proteins. In the following experiments, growth on high-stringency synthetic defined (SD) medium (SD -Leu -Trp -Ade -His) was used to identify if the complex members interact between them causing expression of ADE2 and HIS3. Additionally, strains were also grown on low-stringency medium (SD -Leu -Trp) to confirm their viability. […] All experiments were done with three independent transformants to exclude false positives due to spontaneous mutations.
The S. cerevisiae strain AH109 from Clontech (Saint-Germain-en-Laye, France) is auxotrophic for tryptophan, leucine, adenine and histidine. In addition, lacz is under control of the MEL1 UAS to be used as readout for quantitative β-galactosidase assays.
The resulting test strain NL73 (AD-Stp4/BD-Stp1/myc-Stp3) expresses the Stp1/Stp4/Stp3 subcomplex. NL73 carries the following three plasmids: pGBKT7-stp1: pGBKT7 vector expressing proteins fused to the GAL4 DNA binding domain (DNA-BD). pGBKT7 also contains the T7 promoter, a c-Myc epitope tag, and a MCS. The vector carries a Kanamycin resistance gene (Kanr) for selection in E. coli and the TRP1 nutritional marker for selection in yeast. pGAD-stp4: pGADT7 vector expressing proteins fused to a GAL4 activation domain (AD). The GAL4 AD fusion contains an N-terminal nuclear localization signal that targets the protein to the yeast nucleus, and a HA Tag, located between the GAL4 AD and the protein of interest. The vector carries an ampicillin resistance gene (Ampr) for selection in E. coli and a LEU2 nutritional marker for selection in yeast. pYEA-stp3-myc: pYEA vector expressing proteins under the control of the phosphoglycerate kinase promoter. The vector carries an ampicillin resistance gene (Ampr) for selection in E. coli and an ADE2 nutritional marker for selection in yeast. As control strain, NL70 containing empty vectors was generated (AH109Δabc9 pGAD::LEU2 pGBK::TRP1 pYEA::ADE2).
After that, 25 µl of NL73 cell suspension were dispensed into the assay plates using Multidrop Combi (Thermofisher Scientific) giving a final screening concentration of 10 µM. One column of the assay plate was filled with 25 µl of NL70 control strain cell suspension as negative control. Plates were sealed with Breathe-Easy sealing membrane (Sigma, Z380059), lidded and incubated in a humid chamber over night at 30°C and 140 rpm in an HT Multitron Pro (Infors). […] For the viability assay, the alamar Blue HS Cell Viability reagent (Invitrogen, #A50101) was pre-diluted using an equal amount of dVE-H2O and 5 µl of diluted Alamar Blue were added to the screening plates using Multidrop Combi. The plates were sealed again and incubated for 4 h at room temperature, unlidded. […] Screening data was normalized to DMSO-treated NL73 cells (that received DMSO in the same concentration as in samples where compounds dissolved in DMSO were added) being 100% and DMSO-treated NL70 cells representing 0% viability and analyzed with Quattro Software Suite (Quattro Research GmbH).

Setting [1] is: inhibitory activity on NL73 viability, Table 6, read-out: IC50.
Setting [2] is: Alamar Blue assay, Table 8, read-out: IC50.

For orientation: IC50 means the concentration at which inhibition is half-maximal. Turning to `CCn1c2c(c(SCc3cccc(C)c3)nc1=O)CCC2` [Compound 2-C], under setting [1], the IC50 was 6.2 µM.
Take `O=S(=O)(Nc1cnc2c(cnn2C2CCCCC2)c1)c1cc(F)ccc1F` [Compound 3-B]: the IC50 under setting [2] amounted to 2.2 µM.
As for `CCCn1c2c(c(SCc3ccccc3F)nc1=O)CCC2` [Compound 3-C], the IC50 under setting [1] is 6.4 µM.
`Cn1ncc2cc(NS(=O)(=O)c3cc(F)ccc3F)cnc21` [Compound 4-B]: the IC50 under setting [2] is 10.2 µM.
For `CC(C)n1ncc2cc(NS(C)(=O)=O)cnc21` [Ref1-B, reference compound], for the setting “Alamar Blue assay, Table 8”, the IC50 entry was “inactive”.
On to `O=S(=O)(Nc1cnc2[nH]ncc2c1)c1cc(F)ccc1F` [Ref2-B, reference compound], for which the half-inhibitory concentration (IC50) entry (Alamar Blue assay, Table 8) is “inactive”.
